The values that follow come from patent US20200308540A1, “METHODS OF MAKING, EXPANDING, AND USING A HUMAN PROGENITOR T CELL” (REGENTS OF THE UNIVERSITY OF MINNESOTA, priority 2017, published 2020).

Assay [1] relates to CD34^+ hematopoietic stem/progenitor cells (HSPCs). In words: SR1 expansion culture of umbilical cord blood CD34+ HSPC (15 days). The class given is cell-based, human. The procedure: Frozen UCB units were thawed using standard methods (Rubinstein et al., Proc Natl Acad Sci USA. 1995; 92:10119-10122). The UCB unit was enriched for CD34^+-cells using the CliniMACS Cell Selection Device (Miltenyi Biotec, Gladbach, Germany) following manufacturer's instructions, and the resulting CD34-enriched cell population was placed in expansion media at a concentration of 5×10^3 cells per milliliter (cells/mL). The expansion culture media included SCF, FLT-3L, TPO, IL-6 (each at 50 ng/ml) and SR1 (750 nM). Cells were cultured in expansion culture media without the addition of antibiotics for 15 days; cytokines were replenished and cells were resuspended at 5×10^3 cells/mL at day 7.
HSC expansion media cultures (Boitano et al. Science. 2010; 329(5997):1345-1348) lasted 15 days prior to freezing.
It was previously reported that naïve-UCB can generate 4- to 5-fold Tprog expansion (Awong et al. Blood. 2009; 114(5):972-982). At least 2×10^5 CD34^+ HSPC are needed for HSCT; but a single UCB unit averages 2.5×10^3 CD34^+ HSPC (Delaney et al. Expert Rev Hematol. 2010; 3(3):273-283). This Example describes an investigation of whether adding SR1 (0.75 μM) to expand CD34^+ HSPC Wagner et al. Cell Stem Cell. 2016; 18(1):144-155) could improve in vitro pro-T generation. CD34^+ HSPC culture reproducibility (FIG. 11A) was characterized. […] 2012; 10(2):120-136).

Assay [2] relates to progenitor T cells (CD7^+ cells). Kind of assay: OP9-DL1 co-culture of SR1-/UM171-expanded cells to generate progenitor T cells. Conditions: for CD34 expression during culture with OP9-DL1 cells: cells expanded with compound, then OP9-DL1 culture. The class given is cell-based, human. How it is done: 1. SR1-expanded cells were suspended in 3 mL of OP9 media then seeded into a plate/flask containing irradiated OP9-DL1 cells at 80% confluency. The human cytokines FLT-3L, IL-7, and SCF were added from a 1,000×stock solution (to 1×final concentration). 2. Additional human cytokines FLT-3L, IL-7, and SCF were added from a 1,000×stock solution (to 1×final concentration) every other day during cell culture. 3. At day 5 and every 3 days to 4 days thereafter, media containing cells was removed, and cells and media were passed through a 70 μm sterile nylon mesh or a 40 μm cell strainer into a 50 mL conical tube. Passage through the mesh or strainer removes OP9-DL1 cells but not cells derived from UCBs. PBS (5 mL) was added, and the coculture was disaggregated by vigorous pipetting (using a 5 mL pipette) and passed through the same cell strainer. […] 4. The cells that passed through the cell strainer were centrifuged at 515-585×g for 5 minutes, the supernatant was removed, and the cells were suspended in 1 mL of OP9 media. At this stage, the cells were counted using a hemocytometer (FIG. 2), assayed by flow cytometry (FIG. 3), or co-culture was continued. For continued co-culture, the cells were transferred into a new 6-well plate already containing OP9-DL1 cells at 80% confluency in 2 mL of OP9 media, and human cytokines FLT-3L, IL-7, and SCF were added from a 1,000×stock solution (to 1×final concentration). 5. Cells were harvested as described in steps 3 and 4 at day 14 or day 21 and phenotype was assessed (see FIG. 2, FIG. 3, and FIG. 7) or the cells were injected into a mouse, as described in Example 5. OP9-DL1 were gamma-irradiated (100 Gy) and seeded onto tissue culture flasks. SR1-UCB and naïve-UCB were seeded 2:1 with OP9-DL1 to generate proT-cells after 13-14 days (Schmitt et al. Immunity. 2002; 17(6):749-756). To examine whether SR1-expanded HSPC could generate proT-cells in vitro, SR1-HSPC were co-cultured with OP9-DL1 (FIG. 11A). […] SR1-HSPC and naïve-HSPC co-cultures had similar % CD34^−CD7^+ cells, % CD7^+CD5^+ cells and % CD7^+CD1a^+ cells (FIG. 11C). […] From SR1-HSPC, an approximately 4-fold expansion of pro-Tcells was observed, similar to naïve-HSPC co-cultures (FIG. 11D). Combining SR1-expansion of HSPCs and use of OP9-DL1 co-cultures, a single starting HSPC yielded approximately 2×10^3 cells, a 200-fold greater expansion of SR1-proT cells over naïve proT-cells (FIG. 11E).

The test system of assay [3] is NSG mice. In words: Engraftment of progenitor T cells in NSG mice (thymus, spleen). The following applies: mouse, in vivo. The procedure: ProT cells generated as described in Example 4 (after 21 days of co-culture) were injected into the liver of 2 day to 5 day old neonatal (NOD/SCID/γcnull (NSG)) mice (3 mice per group) at different cell concentrations/mouse (e.g., 2×10^5 cells, 5×10^5 cells, or 5×10^6 cells in 30 μL, volume). Optionally, 2×10^4 CD34-enriched HSCs, isolated from a UCB unit using the CliniMACS Cell Selection Device (Miltenyi Biotec, Gladbach, Germany) following manufacturer's instruction, were injected simultaneously.
Twelve weeks later, mice were sacrificed, and engraftment of the in vitro-derived ProT cells into immunodeficient mice was assessed by flow cytometry analysis using phenotypic characterization of cells within the thymus and spleen of the recipient mouse. Useful markers for analysis include CD45, CD3/TCR, CD8, CD4, CD5, CD7, and CD1a (antibodies were acquired from eBioscience, San Diego, Calif.).
As shown schematically in FIG. 8, SR1-expanded CD34^+ cells from a UCB unit were put into culture with OP9-DL1 cells for 14 days as described in Example 4. […] Four weeks later the mice were sacrificed and the cells' ability to engraft the thymus was assessed.
Tprogenitors were generated from naïve UCB by co-culture with OP9-DL1 cells for 14 days as described in Example 4. […] Four weeks later the mice were sacrificed and the cells' ability to engraft the thymus was assessed. […]

The subject of assay [4] is patients. The following applies: SR1-expanded cord blood; cited from earlier work.
Assay [5] relates to CD34+ stem cells. The following applies: median; Wagner et al. 2016; cited from earlier work.

Regarding `CC(C)n1cnc2c(NCCc3ccc(O)cc3)nc(-c3csc4ccccc34)nc21` [SR1, StemRegenin-1], in assay [1] (SR1 0.75 μM, by day 15), the “fold enhancement of total nuclear cells” value was 252-746 fold, the “fold expansion of CD34^+CD90^+ cells” value was 170-415 fold and the “fold expansion of long-term reconstituting CD34^+CD38^− cells” value was 157-558 fold. For the same compound, the “fold expansion of CD34^+ hematopoietic stem/progenitor cells (HSPCs)” value in assay [1] (SR1-expanded umbilical cord blood) was “greater than 250 fold”. The “cells yielded from a single starting HSPC” value in assay [2] (SR1-expansion of HSPCs combined with OP9-DL1 co-culture) is given as “approximately 2×10^3 cells”. In addition, the “fold increase in ProT cells” value in assay [2] (SR1 expansion of human UCB, then co-culture with Notch ligand cell without SR1) is 2000 fold. Moreover, the “CD34 expression during culture with OP9-DL1 cells” value in assay [2] is recorded as “lose CD34 expression”. Moreover, the “percentage of culture that is proT cell (CD7^+ cell)” value in assay [2] (flow cytometry after OP9-DL1 culture) is recorded as “greater than 90%”. In addition, in assay [2] (from SR1-HSPC, day 14), the “fold expansion of pro-T cells in OP9-DL1 co-culture” value is on record as “approximately 4 fold”. The “fold greater expansion of SR1-proT cells over naïve proT-cells” value in assay [2] (normalized to initial CD34+ input cell number) is reported as 200 fold. Further, the “thymus engraftment of cells treated with the compound, after OP9-DL1 co-culture” value in assay [3] was “able to engraft the thymus”. Besides, in assay [4], the “median time to neutrophil engraftment” value is recorded as 15 days and the “median time to platelet engraftment” value is listed as 49 days. The “fold expansion of CD34+ stem cells” value in assay [5] is 330 fold.
For `Cn1nnc(-c2ccc3c(c2)[nH]c2nc(Cc4ccccc4)nc(NC4CCC(N)CC4)c23)n1` (stereo not shown) [UM171], in assay [2], the “CD34 expression during culture with OP9-DL1 cells” value was “lose CD34 expression”. Further, the “thymus engraftment of cells treated with the compound, after OP9-DL1 co-culture” value in assay [3] is given as “able to engraft the thymus”.
